Experimental findings from paper PMC6949113, “Preclinical evaluation of AT-527, a novel guanosine nucleotide prodrug with potent, pan-genotypic activity against hepatitis C virus” (PLoS ONE, 2020) are described below.

What is called IC50 is the concentration at which inhibition is half-maximal. Higher therefore signals a need for much substance.

For one data set, the system named is Huh-7 cells. As to the kind of experiment: Intracellular metabolism in Huh-7 replicon cells. In kind it is in vitro ADME, human. The method, then:
Huh-7 replicon cells. […] At each time point, the media was removed and the cells were washed twice with cold PBS, collected in 1 mL cold 60% MeOH, and extracted overnight at -20°C with internal standard added. […] Untreated cells were collected at each time point as a negative control.
S3 Protocol. LC-MS/MS analysis of AT-511 and metabolites in cultured cells. The supernatant extracts of each hepatocyte and Huh-7 cell incubation were separately analyzed by four different LC-MS/MS methods for quantitation of phosphoramidates, nucleosides, monophosphates, and triphosphates (methods 1, 2, 3 and 4, respectively), using synthetic reference standards of actually and potentially present compounds and using structurally related analogs as internal standards. Briefly, a Luna PFP (2), 5 µm, 100 x 4.6 mm column and an AB Sciex API-6500 mass spectrometer (ESI positive ion, MRM mode) were used for methods 1-3 and an XBridge Oligonucleotide, BEH C18, 2.5 µm, 50 x 2.1 mm column and a Thermo QE Plus mass spectrometer (electrospray, negative ion mode) were used for method 4. For methods 1 and 2, mobile phases A (10 mM ammonium acetate in water) and B (acetonitrile:methanol, 1:1, v/v) were used to elute samples (5 µL) at 1 mL/min with 15% B for 1.5 min followed by a linear gradient to 75% B over 1 min (method 1) or with 54% B for 1.3 min followed by a linear gradient to 90% B over 1.2 min. […]
In general terms: Replicon systems follow genome replication, usually without infectious particles.

A further data set concerns the target T1, human DNA polymerase β (Homo sapiens, UniProt P06746).
T1 construct: purchased CHIMERx (Madison, WI)
As to the kind of experiment: Human DNA polymerase inhibition assay, β. In kind it is biochemical. The method, then: The polymerases were purchased from CHIMERx (Madison, WI). Inhibition of DNA polymerase α activity was assayed in microtiter plates in 20 mM Tris-HCl, pH 8, 5 mM Mg acetate, 0.3 mg/mL BSA, 1mM DTT, 0.1 mM spermine, 0.05 mM dCTP, dTTP and dATP, 10 μCi ^32P-α-dGTP (800 Ci/mmol), 20 μg activated calf thymus DNA and the test compound at indicated concentrations. The DNA polymerase β and γ reaction mixture contained 50 mM Tris-HCl, pH 8.7, KCl (10 mM for β and 100 mM for γ), 10 mM MgCl2, 0.4 mg/mL BSA, 1mM DTT, 15% glycerol, 0.05 mM dCTP, dTTP and dATP, 10 μCi ^32P-α-dGTP (800 Ci/mmol), 20 μg activated calf thymus DNA and test compound at the indicated concentrations. For each assay, samples were run in triplicate, and positive controls were included. The enzyme reactions were allowed to proceed for 30 min at 37 °C followed by transfer onto glass-fiber filter plates and subsequent precipitation with 10% trichloroacetic acid (TCA). Plates were washed five times with 5% TCA, once with 95% ethanol and dried. The radioactive content of each filter was measured and used to determine the extent of inhibition of each polymerase.

Data set [1] has as its target T2, HCV NS5B polymerase (RdRp) (Hepatitis C virus genotype 1b, UniProt Q9WMX2).
T2 construct: HCV NS5B polymerase (RdRp) assay
The experiment in a line: HCV NS5B polymerase (RdRp) assay. In kind it is biochemical. The method, then:
RdRp activity was determined by the incorporation of radiolabeled ribonucleotide into synthesized RNA. […] HCV796 (Southern Research, Frederick, MD) was used as positive control for the assay.

T2 sequence (Q9WMX2 2420-3010): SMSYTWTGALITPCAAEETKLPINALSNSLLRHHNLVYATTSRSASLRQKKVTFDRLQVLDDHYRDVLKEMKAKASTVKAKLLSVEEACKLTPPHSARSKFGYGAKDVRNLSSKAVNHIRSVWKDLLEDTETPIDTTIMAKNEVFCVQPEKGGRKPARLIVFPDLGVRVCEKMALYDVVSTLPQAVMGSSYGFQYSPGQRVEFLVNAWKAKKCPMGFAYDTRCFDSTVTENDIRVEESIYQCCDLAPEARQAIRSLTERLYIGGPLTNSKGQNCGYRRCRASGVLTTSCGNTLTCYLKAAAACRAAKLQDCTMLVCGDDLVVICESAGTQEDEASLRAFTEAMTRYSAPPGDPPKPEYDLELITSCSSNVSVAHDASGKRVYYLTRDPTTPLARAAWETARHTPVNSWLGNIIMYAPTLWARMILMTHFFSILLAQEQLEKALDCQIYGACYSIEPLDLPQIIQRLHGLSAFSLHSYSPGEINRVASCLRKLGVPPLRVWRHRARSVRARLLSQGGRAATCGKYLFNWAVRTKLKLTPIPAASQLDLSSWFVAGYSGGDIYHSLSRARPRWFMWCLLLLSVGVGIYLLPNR

Take `C[C@@]1(F)[C@H](O)[C@@H](COP(=O)(O)OP(=O)(O)OP(=O)(O)O)O[C@H]1n1cnc2c(=O)[nH]c(N)nc21` [AT-9010]: the “AUC0-24, intracellular” value with Huh-7 cells (10 μM AT-511) is recorded as 5051 pmol*h/10^6 cells. Moreover, the “Cmax, intracellular” value in the data set on Huh-7 cells (10 μM AT-511, 0-24 h) was 420.3 ± 161.4 pmol/10^6 cells. The IC50 against human DNA polymerase β was more than 100 µM; in data set [1] (as a competitive inhibitor of ATP, single assay), 40.3 µM; in data set [1] (as an alternate substrate for GTP, mean of two assays), 0.15 µM.
